Results published in patent US12522594B2, “2-heteroaryl-3-oxo-2,3-dihydropyridazine-4-carboxamides for the treatment of cancer” (Deutsches Krebsforschungszentrum, priority 2017, dated 2026).
Where “and” joins values, the source holds several entries; their conditions need not be identical. Equal entries are not always repeated.

What was measured:
Assay type in all cases: cell-based
[1] = target: T1, AHR (Homo sapiens, UniProt P35869); experiment: In vitro assay 3: AHR-regulated CYP1A1 expression in human cell line (U937, qPCR, KA stimulation); conditions: U937 cells, 200 uM KA, 6 hours, CYP1A1 expression by qPCR; read-out: Assay 3: Hum CYP1A1 Antagonism IC50
T1 sequence (P35869 11-848): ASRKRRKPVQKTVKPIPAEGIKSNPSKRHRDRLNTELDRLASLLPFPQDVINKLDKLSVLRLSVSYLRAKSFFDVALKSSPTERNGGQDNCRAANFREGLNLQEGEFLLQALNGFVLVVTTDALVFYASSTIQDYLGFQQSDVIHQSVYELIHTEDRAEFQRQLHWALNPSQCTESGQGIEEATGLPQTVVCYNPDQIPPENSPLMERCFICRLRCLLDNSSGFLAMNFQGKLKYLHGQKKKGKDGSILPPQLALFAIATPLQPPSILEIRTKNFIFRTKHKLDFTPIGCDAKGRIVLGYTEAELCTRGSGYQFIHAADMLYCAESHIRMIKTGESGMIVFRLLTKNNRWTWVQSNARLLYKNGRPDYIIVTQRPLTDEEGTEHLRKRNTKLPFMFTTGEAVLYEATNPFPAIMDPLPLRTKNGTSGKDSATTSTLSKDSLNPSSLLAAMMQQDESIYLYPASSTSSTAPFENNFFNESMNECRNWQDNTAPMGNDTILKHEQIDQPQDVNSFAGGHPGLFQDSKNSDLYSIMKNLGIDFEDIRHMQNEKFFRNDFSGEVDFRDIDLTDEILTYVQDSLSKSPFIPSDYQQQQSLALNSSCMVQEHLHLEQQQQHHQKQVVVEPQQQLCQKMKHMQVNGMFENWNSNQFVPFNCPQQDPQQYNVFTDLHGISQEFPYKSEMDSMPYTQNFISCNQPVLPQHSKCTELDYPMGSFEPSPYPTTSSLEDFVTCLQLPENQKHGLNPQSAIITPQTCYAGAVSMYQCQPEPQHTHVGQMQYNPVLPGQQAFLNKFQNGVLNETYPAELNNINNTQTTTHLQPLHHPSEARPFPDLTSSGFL
Outline: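 U937 human monocytic cells were stimulated with 200 uM KA for 6 h, with or without compound at eight concentrations from 1 nM to 3 uM, in duplicate. CYP1A1 mRNA was quantified by Taqman qPCR as fold expression normalised to HPRT. Unstimulated cells served as negative control.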

[2] = target: T1, AHR; experiment: In vitro assay 2: agonism in human cell line (transactivation assay, U87 cells, DRE firefly luciferase reporter); set-up: host or cells: U87 glioblastoma cells, stably transfected with DRE firefly luciferase and renilla reporter constructs; conditions: no kynurenic acid, 20 hours, read-out: Assay 2: AHR-luc Hum Agonism IC50
Outline: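 U87 glioblastoma cells with endogenous AHR, stably carrying DRE-driven firefly luciferase and constitutive renilla reporters. 300 uM kynurenic acid served as positive activation control; data normalized to positive and negative controls.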

[3] = target: T1, AHR; experiment: In vitro assay 1: antagonism in human cell line (transactivation assay, U87 cells prestimulated with kynurenic acid, DRE firefly luciferase reporter); set-up: host or cells: U87 glioblastoma cells, stably transfected with DRE firefly luciferase and renilla reporter constructs; conditions: 150 uM kynurenic acid, 20 hours, read-out: Assay 1: AHR-luc Hum Antagonism IC50
Outline: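 U87 glioblastoma cells with endogenous AHR, stably carrying a DRE-driven firefly luciferase reporter and a constitutive renilla reporter. Cells prestimulated with the AHR agonist kynurenic acid before compound addition; data normalized to positive and negative controls.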

[4] = test system: human monocytes; experiment: In vitro assay 4: rescue of TNFα production from human primary monocytes (LPS + KA); conditions: one value per donor; for Individual Donors Conc of highest rescue: concentration (of 1, 0.3, 0.1 uM tested) at which highest TNFα rescue was observed; for Individual Donors % rescue TNFα normalised to ref cmpd: human monocytes, 10 ng/mL LPS + 200 uM KA, 18 hours, highest percent rescue relative to highest rescue with GNF-351
Procedure: In Vitro Assay 4: Rescue of TNFα Production from Human Primary Monocytes
The ability of the substances to enhance immune cell activity was determined. The substances were tested for their capacity to reverse KA-induced inhibition of TNFα production by LPS-stimulated human monocytes. Human monocytes were purified by negative selection from donor PBMCs using Miltenyi beads and seeded at 2×10^5 cells/well in complete growth medium (RPMI 1640, 10% FCS). Monocytes were incubated with 10 ng/mL LPS (O127:B8, #L4516, Sigma) and 200 uM KA (#3375, Sigma) and substances were added at concentrations of 1 uM, 0.3 uM and 0.1 uM and cultured for 18 hours. LPS alone served as the positive control. TNFα production in the supernatant was measured by Meso Scale Discovery immunoassay and the ability of the substances to rescue TNFα production was calculated as a percentage of LPS stimulation and KA-induced inhibition and normalized to the donor-specific response with the reference AHR antagonist compound GNF-351 (Smith et al., J Pharmacol Exp Ther, 2011, 338(1):318-27).

SMILES | IC50 [1] [nM] | IC50 [2] [nM] | IC50 [3] [nM] | Individual Donors Conc of highest rescue [4] | Individual Donors % rescue TNFα normalised to ref cmpd [4]
O=C(NCC(O)C(F)F)c1cc(-c2ccc(Cl)cc2)nn(-c2cccnc2)c1=O (racemic) [Example 79, 6-(4-Chlorophenyl)-N-[(2RS)-3,3-difluoro-2-hydroxypropyl]-3-oxo-2-(pyridin-3-yl)-2,3-dihydropyridazine-4-carboxamide] | 80.4 | > 20000 | 39.5 | 0.3 µM and 0.1 µM | 76% and 63%
O=C(NC[C@@H](O)CO)c1cc(-c2ccc(C(F)(F)F)cc2)nn(-c2cccnc2)c1=O [Example 113, N-[(2R)-2,3-Dihydroxypropyl]-3-oxo-2-(pyridin-3-yl)-6-[4-(trifluoromethyl)phenyl]-2,3-dihydropyridazine-4-carboxamide] | 105 | > 20000 | 48.3 | 1 µM | 91% and 51%
Cn1cc(-n2nc(-c3ccc(Cl)cc3)cc(C(=O)NC[C@H](O)CO)c2=O)cn1 [Example 27, 6-(4-Chlorophenyl)-N-[(2S)-2,3-dihydroxypropyl]-2-(1-methyl-1H-pyrazol-4-yl)-3-oxo-2,3-dihydropyridazine-4-carboxamide] |  | > 20000 | 177 | 1 µM and 0.3 µM | 87% and 105%
Cc1ccc(-c2cc(C(=O)NC(C)CO)c(=O)n(-c3cnn(C)c3)n2)cc1 (centres unmarked) [Example 7, N-(1-Hydroxypropan-2-yl)-6-(4-methylphenyl)-2-(1-methyl-1H-pyrazol-4-yl)-3-oxo-2,3-dihydropyridazine-4-carboxamide] |  | > 20000 | 20.5 | 0.1 μM and 1 μM (2×) | 126% and 63% and 49%
Cn1cc(-n2nc(-c3ccc(Cl)cc3)cc(C(=O)NCC(O)C(F)F)c2=O)cn1 (single isomer, unassigned; (+)) [Example 23, (+)-6-(4-Chlorophenyl)-N-(3,3-difluoro-2-hydroxypropyl)-2-(1-methyl-1H-pyrazol-4-yl)-3-oxo-2,3-dihydropyridazine-4-carboxamide] |  | > 20000 | 45.7 | 1 µM | 274% and 81%
O=C(NCC(O)C(F)F)c1cc(-c2ccc(Cl)cc2)nn(-c2cccnc2)c1=O (single isomer, unassigned; (+)) [Example 88, (+)-6-(4-Chlorophenyl)-N-(3,3-difluoro-2-hydroxypropyl)-3-oxo-2-(pyridin-3-yl)-2,3-dihydropyridazine-4-carboxamide] |  | > 20000 | 78 | 1 µM | 69% and 35%

The next lines start with results.

IC50 [1] [nM] | IC50 [2] [nM] | IC50 [3] [nM] | SMILES | Individual Donors Conc of highest rescue [4] | Individual Donors % rescue TNFα normalised to ref cmpd [4]
18.2 | > 20000 | 28 | Cn1cc(-n2nc(-c3ccc(Cl)cc3)cc(C(=O)NCC(O)C(F)F)c2=O)cn1 (centres unmarked) [Example 21, 6-(4-Chlorophenyl)-N-(3,3-difluoro-2-hydroxypropyl)-2-(1-methyl-1H-pyrazol-4-yl)-3-oxo-2,3-dihydropyridazine-4-carboxamide] | 0.3 µM and 1 µM | 87% and 77%
11.3 | > 20000 | 14.2 | Cn1cc(-n2nc(-c3ccc(Cl)cc3)cc(C(=O)NCC(O)C(F)(F)F)c2=O)cn1 (centres unmarked) [Example 18, 6-(4-Chlorophenyl)-2-(1-methyl-1H-pyrazol-4-yl)-3-oxo-N-(3,3,3-trifluoro-2-hydroxypropyl)-2,3-dihydropyridazine-4-carboxamide] | 1 μM (2×) and 0.3 μM (2×) | 83% and 73% and 76% and 105%
11.1 | > 20000 | 12.2 | O=C(N[C@H]1CCC[C@H]1O)c1cc(-c2ccc(OC(F)(F)F)cc2)nn(-c2cccnc2)c1=O [Example 147, N-[(1S,2R)-2-Hydroxycyclopentyl]-3-oxo-2-(pyridin-3-yl)-6-[4-(trifluoromethoxy)phenyl]-2,3-dihydropyridazine-4-carboxamide] | 0.1 µM and 0.3 µM | 50% and 89%
 | > 20000 | 214 | C[C@H](CO)NC(=O)c1cc(-c2ccc(Cl)cc2)nn(-c2cccnc2)c1=O [Example 69, 6-(4-Chlorophenyl)-N-[(2R)-1-hydroxypropan-2-yl]-3-oxo-2-(pyridin-3-yl)-2,3-dihydropyridazine-4-carboxamide] | 0.1 µM | 88% and 97%
 | > 20000 | 3810 | O=C(N[C@H]1COC[C@H]1O)c1cc(-c2ccc(C(F)F)nc2)nn(-c2cccnc2)c1=O (single isomer, unassigned) [Example 184, 6-[6-(Difluoromethyl)pyridin-3-yl]-N-[(cis)-4-hydroxytetrahydrofuran-3-yl]-3-oxo-2-(pyridin-3-yl)-2,3-dihydropyridazine-4-carboxamide] | 0.1 µM and 1 µM | 63% and 62%
 | > 20000 | 3.31 | O=C(NC(CO)C(F)(F)F)c1cc(-c2ccc(C(F)(F)F)cc2)nn(-c2cccnc2)c1=O (racemic) [Example 110, 3-Oxo-2-(pyridin-3-yl)-N-[(2RS)-1,1,1-trifluoro-3-hydroxypropan-2-yl]-6-[4-(trifluoromethyl)phenyl]-2,3-dihydropyridazine-4-carboxamide] | 0.1 µM and 0.3 µM | 85% and 42%
15.8 | > 20000 | 19 | Cc1ccc(-c2cc(C(=O)N[C@@H](C)CO)c(=O)n(-c3cnn(C)c3)n2)cc1 [Example 8, N-[(2S)-1-Hydroxypropan-2-yl]-6-(4-methylphenyl)-2-(1-methyl-1H-pyrazol-4-yl)-3-oxo-2,3-dihydropyridazine-4-carboxamide] | 1 μM (4×) and 0.1 μM | 99% and 55% and 104% and 109% and 36%
 | > 20000 | 76.1 | COC[C@H](CO)NC(=O)c1cc(-c2ccc(Cl)cc2)nn(-c2cnn(C)c2)c1=O [Example 29, 6-(4-Chlorophenyl)-N-[(2S)-1-hydroxy-3-methoxypropan-2-yl]-2-(1-methyl-1H-pyrazol-4-yl)-3-oxo-2,3-dihydropyridazine-4-carboxamide] | 1 µM | 66% and 88%
